Measured values: the kinase profiling compilation of Christmann-Franck et al. (2016)

How the values were obtained:
Experiment in all cases: KINOMEscan competition binding
Details in all cases: compound 10.0 µM
[1] = tested on: FLT3 (human), P36888 [R834Q]
PDGFRA (human) = PDGFRA (human) (UniProt P16234)
PRPF4B (human) = PRPF4B (human) (UniProt Q13523)
TAOK3 (human) = TAOK3 (human) (UniProt Q9H2K8)
ULK3 (human) = ULK3 (human) (UniProt Q6PHR2)
CAMK1G (human) = CAMK1G (human) (UniProt Q96NX5)
ULK2 (human) = ULK2 (human) (UniProt Q8IYT8)
MAP3K15 (human) = MAP3K15 (human) (UniProt Q6ZN16)
SRMS (human) = SRMS (human) (UniProt Q9H3Y6)
NUAK2 (human) = NUAK2 (human) (UniProt Q9H093)
PIP5K1C (human) = PIP5K1C (human) (UniProt O60331)
LATS2 (human) = LATS2 (human) (UniProt Q9NRM7)
PAK7 (human) = PAK7 (human) (UniProt Q9P286)
CIT (human) = CIT (human) (UniProt O14578)
MAPK3 (human) = MAPK3 (human) (UniProt P27361)
MAK (human) = MAK (human) (UniProt P20794)
EPHA8 (human) = EPHA8 (human) (UniProt P29322)
PTK2B (human) = PTK2B (human) (UniProt Q14289)
ACVRL1 (human) = ACVRL1 (human) (UniProt P37023)
PAK3 (human) = PAK3 (human) (UniProt O75914)
PRKCE (human) = PRKCE (human) (UniProt Q02156)
FLT1 (human) = FLT1 (human) (UniProt P17948)
MAPK12 (human) = MAPK12 (human) (UniProt P53778)
MAPK15 (human) = MAPK15 (human) (UniProt Q8TD08)
GRK7 (human) = GRK7 (human) (UniProt Q8WTQ7)
PRKD3 (human) = PRKD3 (human) (UniProt O94806)
ADCK3 (human) = ADCK3 (human) (UniProt Q8NI60)
CAMK2G (human) = CAMK2G (human) (UniProt Q13555)
SNRK (human) = SNRK (human) (UniProt Q9NRH2)
SGK110 (human) = SGK110 (human) (UniProt P0C264)
TIE1 (human) = TIE1 (human) (UniProt P35590)
CLK3 (human) = CLK3 (human) (UniProt P49761)
CDKL3 (human) = CDKL3 (human) (UniProt Q8IVW4)
TLK2 (human) = TLK2 (human) (UniProt Q86UE8)
PRKG1 (human) = PRKG1 (human) (UniProt Q13976)
AKT2 (human) = AKT2 (human) (UniProt P31751)
BTK (human) = BTK (human) (UniProt Q06187)
MKNK2 (human) = MKNK2 (human) (UniProt Q9HBH9)
PAK4 (human) = PAK4 (human) (UniProt O96013)
MAST1 (human) = MAST1 (human) (UniProt Q9Y2H9)
MAP4K5 (human) = MAP4K5 (human) (UniProt Q9Y4K4)

PDGFRA (human), sequence (P16234 whole entry, looked up): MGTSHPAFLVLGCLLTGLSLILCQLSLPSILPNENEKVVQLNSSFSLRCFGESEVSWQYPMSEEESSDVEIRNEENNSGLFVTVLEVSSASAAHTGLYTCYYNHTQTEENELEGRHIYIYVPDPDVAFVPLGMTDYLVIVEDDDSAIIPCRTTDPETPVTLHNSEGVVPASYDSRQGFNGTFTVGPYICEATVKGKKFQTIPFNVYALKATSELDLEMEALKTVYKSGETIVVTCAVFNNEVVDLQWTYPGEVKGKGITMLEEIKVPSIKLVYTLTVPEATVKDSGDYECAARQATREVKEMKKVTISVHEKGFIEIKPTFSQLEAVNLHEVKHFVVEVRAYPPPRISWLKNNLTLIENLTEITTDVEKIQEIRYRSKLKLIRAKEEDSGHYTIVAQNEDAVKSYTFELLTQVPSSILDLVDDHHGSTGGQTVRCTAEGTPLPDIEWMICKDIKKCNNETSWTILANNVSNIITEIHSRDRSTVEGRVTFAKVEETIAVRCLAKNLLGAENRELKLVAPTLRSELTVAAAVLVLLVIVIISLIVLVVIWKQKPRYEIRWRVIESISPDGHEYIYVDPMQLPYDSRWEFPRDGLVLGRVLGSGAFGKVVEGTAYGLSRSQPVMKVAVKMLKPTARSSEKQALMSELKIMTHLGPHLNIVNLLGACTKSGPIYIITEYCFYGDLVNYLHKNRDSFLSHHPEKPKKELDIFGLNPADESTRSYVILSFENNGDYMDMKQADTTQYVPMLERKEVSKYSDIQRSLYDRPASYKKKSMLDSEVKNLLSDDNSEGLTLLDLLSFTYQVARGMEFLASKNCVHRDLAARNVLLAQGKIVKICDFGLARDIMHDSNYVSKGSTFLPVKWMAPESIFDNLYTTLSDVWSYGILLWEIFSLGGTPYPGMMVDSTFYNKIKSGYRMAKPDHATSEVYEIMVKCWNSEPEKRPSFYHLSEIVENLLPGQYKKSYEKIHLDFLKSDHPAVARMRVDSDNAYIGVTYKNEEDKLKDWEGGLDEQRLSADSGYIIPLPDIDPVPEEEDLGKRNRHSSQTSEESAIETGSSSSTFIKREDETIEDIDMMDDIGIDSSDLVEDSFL
CAMK2G (human), sequence (Q13555 whole entry, looked up): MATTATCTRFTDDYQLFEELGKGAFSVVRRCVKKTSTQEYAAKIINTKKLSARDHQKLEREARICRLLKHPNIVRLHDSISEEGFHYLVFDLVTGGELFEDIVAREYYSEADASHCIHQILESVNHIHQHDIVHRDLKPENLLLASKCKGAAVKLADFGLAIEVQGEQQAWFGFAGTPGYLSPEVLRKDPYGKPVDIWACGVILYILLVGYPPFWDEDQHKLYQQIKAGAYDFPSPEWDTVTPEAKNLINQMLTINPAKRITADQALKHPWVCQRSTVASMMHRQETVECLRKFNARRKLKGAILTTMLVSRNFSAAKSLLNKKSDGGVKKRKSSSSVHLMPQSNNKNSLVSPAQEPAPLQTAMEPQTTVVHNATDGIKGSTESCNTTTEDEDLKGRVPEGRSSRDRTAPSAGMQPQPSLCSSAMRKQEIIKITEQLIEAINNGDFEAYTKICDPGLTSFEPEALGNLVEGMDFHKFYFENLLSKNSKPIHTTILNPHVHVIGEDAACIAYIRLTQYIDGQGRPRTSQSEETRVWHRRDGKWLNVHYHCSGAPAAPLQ
GRK7 (human), sequence (Q8WTQ7 whole entry, looked up): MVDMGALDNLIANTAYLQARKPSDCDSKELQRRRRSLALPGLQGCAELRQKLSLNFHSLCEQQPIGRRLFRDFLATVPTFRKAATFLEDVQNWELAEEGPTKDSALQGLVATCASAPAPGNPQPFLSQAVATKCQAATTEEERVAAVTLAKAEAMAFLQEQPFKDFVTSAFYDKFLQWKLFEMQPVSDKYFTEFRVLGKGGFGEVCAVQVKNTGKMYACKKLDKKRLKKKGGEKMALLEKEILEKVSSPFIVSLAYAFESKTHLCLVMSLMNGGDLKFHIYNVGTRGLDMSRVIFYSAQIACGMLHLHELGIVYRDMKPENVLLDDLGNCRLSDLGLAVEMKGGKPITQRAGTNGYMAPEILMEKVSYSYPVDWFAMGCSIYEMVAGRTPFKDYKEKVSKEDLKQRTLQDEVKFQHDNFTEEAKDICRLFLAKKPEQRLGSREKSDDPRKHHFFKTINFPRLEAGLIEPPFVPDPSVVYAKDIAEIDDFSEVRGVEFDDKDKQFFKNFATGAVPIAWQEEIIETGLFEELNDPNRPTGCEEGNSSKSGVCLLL
ACVRL1 (human), sequence (P37023 whole entry, looked up): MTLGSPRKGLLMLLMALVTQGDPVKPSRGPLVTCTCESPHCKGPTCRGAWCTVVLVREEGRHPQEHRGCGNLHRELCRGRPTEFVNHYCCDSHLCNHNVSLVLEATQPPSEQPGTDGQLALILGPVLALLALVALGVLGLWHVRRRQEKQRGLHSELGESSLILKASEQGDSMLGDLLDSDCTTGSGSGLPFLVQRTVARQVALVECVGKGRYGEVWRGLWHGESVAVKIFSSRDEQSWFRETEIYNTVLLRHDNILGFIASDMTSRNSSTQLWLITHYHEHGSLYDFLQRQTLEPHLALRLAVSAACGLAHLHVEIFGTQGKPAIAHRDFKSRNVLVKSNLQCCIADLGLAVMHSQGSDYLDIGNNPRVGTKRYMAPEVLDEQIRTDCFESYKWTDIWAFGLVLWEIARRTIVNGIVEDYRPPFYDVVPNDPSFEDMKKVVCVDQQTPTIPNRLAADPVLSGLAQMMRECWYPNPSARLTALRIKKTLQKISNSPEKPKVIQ
SNRK (human), sequence (Q9NRH2 whole entry, looked up): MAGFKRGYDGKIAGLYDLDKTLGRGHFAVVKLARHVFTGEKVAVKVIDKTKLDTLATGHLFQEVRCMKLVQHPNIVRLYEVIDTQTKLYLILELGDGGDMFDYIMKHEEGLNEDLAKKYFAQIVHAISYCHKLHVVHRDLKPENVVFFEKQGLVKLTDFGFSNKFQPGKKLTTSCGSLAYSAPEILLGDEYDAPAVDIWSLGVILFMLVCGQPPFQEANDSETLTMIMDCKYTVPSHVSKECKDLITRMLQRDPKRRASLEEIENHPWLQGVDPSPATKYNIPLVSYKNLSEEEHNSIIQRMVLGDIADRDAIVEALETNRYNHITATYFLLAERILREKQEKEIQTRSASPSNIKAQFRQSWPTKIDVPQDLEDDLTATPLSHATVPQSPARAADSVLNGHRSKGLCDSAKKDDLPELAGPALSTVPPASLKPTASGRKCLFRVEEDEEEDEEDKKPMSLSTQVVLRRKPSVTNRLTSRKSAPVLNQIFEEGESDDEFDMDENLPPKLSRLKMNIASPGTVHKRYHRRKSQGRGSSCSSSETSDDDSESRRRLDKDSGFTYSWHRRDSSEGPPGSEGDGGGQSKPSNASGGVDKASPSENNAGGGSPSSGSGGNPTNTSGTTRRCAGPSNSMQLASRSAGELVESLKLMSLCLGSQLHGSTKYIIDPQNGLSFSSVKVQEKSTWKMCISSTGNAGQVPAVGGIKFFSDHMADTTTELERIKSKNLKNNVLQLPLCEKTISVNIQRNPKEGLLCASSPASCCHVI
PRKD3 (human), sequence (O94806 whole entry, looked up): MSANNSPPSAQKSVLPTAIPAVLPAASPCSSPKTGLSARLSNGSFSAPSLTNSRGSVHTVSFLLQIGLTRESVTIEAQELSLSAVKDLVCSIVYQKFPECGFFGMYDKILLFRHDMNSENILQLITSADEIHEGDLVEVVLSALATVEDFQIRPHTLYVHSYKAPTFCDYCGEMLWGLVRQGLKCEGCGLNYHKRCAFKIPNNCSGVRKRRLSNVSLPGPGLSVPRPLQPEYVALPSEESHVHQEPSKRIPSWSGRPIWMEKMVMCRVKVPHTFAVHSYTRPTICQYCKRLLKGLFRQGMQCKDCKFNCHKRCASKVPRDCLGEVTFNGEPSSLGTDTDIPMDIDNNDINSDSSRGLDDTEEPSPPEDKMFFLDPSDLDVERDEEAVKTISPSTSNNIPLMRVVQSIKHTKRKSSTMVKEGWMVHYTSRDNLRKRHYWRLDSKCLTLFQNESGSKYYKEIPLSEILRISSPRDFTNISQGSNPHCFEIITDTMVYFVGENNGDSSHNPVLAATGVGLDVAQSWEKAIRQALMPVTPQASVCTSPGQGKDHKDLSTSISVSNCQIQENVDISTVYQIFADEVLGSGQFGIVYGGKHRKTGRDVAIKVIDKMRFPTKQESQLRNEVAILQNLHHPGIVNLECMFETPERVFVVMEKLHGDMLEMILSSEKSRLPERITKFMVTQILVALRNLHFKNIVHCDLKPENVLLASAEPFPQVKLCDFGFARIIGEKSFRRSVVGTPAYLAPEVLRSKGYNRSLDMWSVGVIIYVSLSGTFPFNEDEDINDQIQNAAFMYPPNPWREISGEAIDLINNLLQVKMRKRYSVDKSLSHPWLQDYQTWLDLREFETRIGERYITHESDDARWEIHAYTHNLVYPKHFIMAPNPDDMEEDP
PIP5K1C (human), sequence (O60331 whole entry, looked up): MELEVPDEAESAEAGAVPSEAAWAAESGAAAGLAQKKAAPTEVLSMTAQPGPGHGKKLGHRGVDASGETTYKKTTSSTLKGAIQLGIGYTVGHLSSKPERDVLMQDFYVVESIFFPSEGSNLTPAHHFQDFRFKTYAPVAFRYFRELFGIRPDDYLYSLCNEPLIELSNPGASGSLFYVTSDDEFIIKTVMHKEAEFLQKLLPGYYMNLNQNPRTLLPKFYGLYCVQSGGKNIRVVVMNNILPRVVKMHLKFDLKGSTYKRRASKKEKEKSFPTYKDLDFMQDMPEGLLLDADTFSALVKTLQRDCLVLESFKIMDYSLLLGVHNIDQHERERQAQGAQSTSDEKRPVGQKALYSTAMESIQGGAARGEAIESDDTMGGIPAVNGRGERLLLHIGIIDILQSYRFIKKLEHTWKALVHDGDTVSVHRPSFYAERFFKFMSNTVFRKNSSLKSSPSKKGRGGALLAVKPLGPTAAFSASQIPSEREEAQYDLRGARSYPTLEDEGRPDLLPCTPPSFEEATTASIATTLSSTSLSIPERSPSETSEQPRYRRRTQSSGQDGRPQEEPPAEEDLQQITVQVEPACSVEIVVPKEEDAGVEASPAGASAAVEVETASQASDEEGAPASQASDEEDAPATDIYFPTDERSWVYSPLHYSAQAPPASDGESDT

## COCC(=O)NC/C=C/c1ccc2ncnc(Nc3ccc(Oc4ccc(C)nc4)c(C)c3)c2c1
[1]
  kinase still bound, per cent of control: 100%
PDGFRA (human)
  kinase still bound, per cent of control: 56%
PRPF4B (human)
  kinase still bound, per cent of control: 93%
TAOK3 (human)
  kinase still bound, per cent of control: 100%
ULK3 (human)
  kinase still bound, per cent of control: 68%
CAMK1G (human)
  kinase still bound, per cent of control: 96%
ULK2 (human)
  kinase still bound, per cent of control: 100%
MAP3K15 (human)
  kinase still bound, per cent of control: 100%
SRMS (human)
  kinase still bound, per cent of control: 71%
NUAK2 (human)
  kinase still bound, per cent of control: 100%
PIP5K1C (human)
  kinase still bound, per cent of control: 93%
LATS2 (human)
  kinase still bound, per cent of control: 100%
PAK7 (human)
  kinase still bound, per cent of control: 87%
CIT (human)
  kinase still bound, per cent of control: 76%
MAPK3 (human)
  kinase still bound, per cent of control: 95%
MAK (human)
  kinase still bound, per cent of control: 90%
EPHA8 (human)
  kinase still bound, per cent of control: 98%
PTK2B (human)
  kinase still bound, per cent of control: 80%
ACVRL1 (human)
  kinase still bound, per cent of control: 84%
PAK3 (human)
  kinase still bound, per cent of control: 70%
PRKCE (human)
  kinase still bound, per cent of control: 100%
FLT1 (human)
  kinase still bound, per cent of control: 88%
MAPK12 (human)
  kinase still bound, per cent of control: 100%
MAPK15 (human)
  kinase still bound, per cent of control: 100%
GRK7 (human)
  kinase still bound, per cent of control: 100%
PRKD3 (human)
  kinase still bound, per cent of control: 83%
ADCK3 (human)
  kinase still bound, per cent of control: 100%
CAMK2G (human)
  kinase still bound, per cent of control: 94%
SNRK (human)
  kinase still bound, per cent of control: 71%
SGK110 (human)
  kinase still bound, per cent of control: 100%
TIE1 (human)
  kinase still bound, per cent of control: 100%
CLK3 (human)
  kinase still bound, per cent of control: 100%
CDKL3 (human)
  kinase still bound, per cent of control: 100%
TLK2 (human)
  kinase still bound, per cent of control: 100%
PRKG1 (human)
  kinase still bound, per cent of control: 100%
AKT2 (human)
  kinase still bound, per cent of control: 100%
BTK (human)
  kinase still bound, per cent of control: 68%
MKNK2 (human)
  kinase still bound, per cent of control: 1.4%
PAK4 (human)
  kinase still bound, per cent of control: 87%
MAST1 (human)
  kinase still bound, per cent of control: 100%
MAP4K5 (human)
  kinase still bound, per cent of control: 86%

## O=C1NC(=O)/C(=C/c2ccc3nccc(-c4ccncc4)c3c2)S1
[1]
  kinase still bound, per cent of control: 90%
PDGFRA (human)
  kinase still bound, per cent of control: 67%
PRPF4B (human)
  kinase still bound, per cent of control: 88%
TAOK3 (human)
  kinase still bound, per cent of control: 13%
ULK3 (human)
  kinase still bound, per cent of control: 39%
CAMK1G (human)
  kinase still bound, per cent of control: 32%
ULK2 (human)
  kinase still bound, per cent of control: 65%
MAP3K15 (human)
  kinase still bound, per cent of control: 100%
SRMS (human)
  kinase still bound, per cent of control: 67%
NUAK2 (human)
  kinase still bound, per cent of control: 36%
PIP5K1C (human)
  kinase still bound, per cent of control: 28%
LATS2 (human)
  kinase still bound, per cent of control: 100%
PAK7 (human)
  kinase still bound, per cent of control: 91%
CIT (human)
  kinase still bound, per cent of control: 4.4%
MAPK3 (human)
  kinase still bound, per cent of control: 100%
MAK (human)
  kinase still bound, per cent of control: 100%
EPHA8 (human)
  kinase still bound, per cent of control: 90%
PTK2B (human)
  kinase still bound, per cent of control: 86%
ACVRL1 (human)
  kinase still bound, per cent of control: 85%
PAK3 (human)
  kinase still bound, per cent of control: 20%
PRKCE (human)
  kinase still bound, per cent of control: 38%
FLT1 (human)
  kinase still bound, per cent of control: 73%
MAPK12 (human)
  kinase still bound, per cent of control: 56%
MAPK15 (human)
  kinase still bound, per cent of control: 0.05%
GRK7 (human)
  kinase still bound, per cent of control: 5.4%
PRKD3 (human)
  kinase still bound, per cent of control: 74%
ADCK3 (human)
  kinase still bound, per cent of control: 93%
CAMK2G (human)
  kinase still bound, per cent of control: 28%
SNRK (human)
  kinase still bound, per cent of control: 100%
SGK110 (human)
  kinase still bound, per cent of control: 100%
TIE1 (human)
  kinase still bound, per cent of control: 100%
CLK3 (human)
  kinase still bound, per cent of control: 0.05%
CDKL3 (human)
  kinase still bound, per cent of control: 99%
TLK2 (human)
  kinase still bound, per cent of control: 87%
PRKG1 (human)
  kinase still bound, per cent of control: 75%
AKT2 (human)
  kinase still bound, per cent of control: 100%
BTK (human)
  kinase still bound, per cent of control: 58%
MKNK2 (human)
  kinase still bound, per cent of control: 49%
PAK4 (human)
  kinase still bound, per cent of control: 75%
MAST1 (human)
  kinase still bound, per cent of control: 83%
MAP4K5 (human)
  kinase still bound, per cent of control: 41%
